Assay [1] can be described thus: Inhibition of type1 FAS in HepG2 cells. The assay is classed as cell-based, Homo sapiens.
In another assay the test system is Bacteroides fragilis. The experiment in a line: Antimicrobial activity against Bacteroides fragilis GAI5560. The assay is classed as functional.
A further assay concerns Moraxella catarrhalis. The experiment in a line: Antimicrobial activity against Moraxella catarrhalis ATCC 25238. The assay is classed as functional.
The subject of another assay is Staphylococcus aureus. The experiment in a line: Antimicrobial activity against Staphylococcus aureus. In kind it is functional.
The next assay relates to Haemophilus influenzae. The experiment in a line: Antimicrobial activity against Haemophilus influenzae IID983. The assay is classed as functional.

IC50 and MIC data for 29 compounds are collected here from ChEMBL document CHEMBL1139992, “Synthesis and biological activity of enantiomeric pairs of 5-vinylthiolactomycin congeners” (Bioorg Med Chem Lett, 2007).

≈ marks a conversion by molar mass, not a printed value. Bounds are passed on as bounds.

In general, IC50 refers to the concentration that gives 50% inhibition. Turning to `C=C1C(=O)O[C@@H](CCCCCCCC)[C@@H]1C(=O)O`, in assay [1], the concentration for half-maximal inhibition (IC50) is 7.4 µg/mL (≈ 29.1 µM).
The compound `C/C=C/[C@@]1(C)SC(=O)C=C1O` showed a half-inhibitory concentration (IC50) in assay [1] of 72.1 µg/mL (≈ 424 µM). The MIC with Bacteroides fragilis, against Moraxella catarrhalis, in the assay on Staphylococcus aureus and against Haemophilus influenzae was more than 128 µg/mL each time.
In turn, `CC/C=C/[C@@]1(C)SC(=O)C=C1O` displayed an IC50 in assay [1] of 40.3 µg/mL (≈ 219 µM). The MIC with Bacteroides fragilis, against Moraxella catarrhalis, against Staphylococcus aureus and with Haemophilus influenzae was more than 128 µg/mL throughout.
In assay [1], `C=C[C@@]1(C)SC(=O)C(C)=C1O` registered a 50% inhibitory concentration (IC50) of more than 80 µg/mL. In addition, the MIC in the assay with Bacteroides fragilis, against Moraxella catarrhalis, in the assay on Staphylococcus aureus and in the assay with Haemophilus influenzae was more than 128 µg/mL throughout.
Turning to `CCCCCC/C=C/[C@]1(C)SC(=O)C(C)=C1O` (stereo in doubt; form 1), the IC50 in assay [1] is 34.8 µg/mL (≈ 137 µM).
As for `O=C(O)c1cn(C2CC2)c2cc(N3CCNCC3)c(F)cc2c1=O` [CIPROFLOXACIN], the MIC was found to be 4 µg/mL (≈ 12.1 µM) against Bacteroides fragilis, 0.031 µg/mL (≈ 0.0936 µM) against Moraxella catarrhalis, 0.063 µg/mL (≈ 0.19 µM) against Staphylococcus aureus and 0.008 µg/mL (≈ 0.0241 µM) against Haemophilus influenzae.
For the compound `C=C[C@@]1(C)SC(=O)C=C1O`, the 50% inhibitory concentration (IC50) in assay [1] was more than 80 µg/mL. In addition, the MIC with Bacteroides fragilis, against Moraxella catarrhalis, against Staphylococcus aureus and against Haemophilus influenzae was more than 128 µg/mL each time.
Turning to `CC/C=C/[C@]1(C)SC(=O)C=C1O`, in assay [1], the 50% inhibitory concentration (IC50) was 18.9 µg/mL (≈ 103 µM). The MIC in the assay on Bacteroides fragilis, with Moraxella catarrhalis, against Staphylococcus aureus and in the assay on Haemophilus influenzae was more than 128 µg/mL throughout.
In assay [1], `C=C/C(C)=C/[C@]1(C)SC(=O)C(C)=C1O` came in with an IC50 of 43.7 µg/mL (≈ 208 µM). The MIC against Moraxella catarrhalis and against Staphylococcus aureus was more than 128 µg/mL throughout.
In assay [1], `C=C/C(C)=C/[C@@]1(C)SC(=O)C(C)=C1O` [THIOLACTOMYCIN] had an IC50 of more than 80 µg/mL. For the same compound, the MIC in the assay on Bacteroides fragilis amounted to 1 µg/mL (≈ 4.76 µM); in the assay with Moraxella catarrhalis, 0.25 µg/mL (≈ 1.19 µM); with Staphylococcus aureus it was 128 µg/mL (≈ 609 µM); in the assay on Haemophilus influenzae, 2 µg/mL (≈ 9.51 µM).
The matching figures for `CCCC/C=C/[C@]1(C)SC(=O)C=C1O`: 21 µg/mL (≈ 98.9 µM), more than 128 µg/mL, more than 128 µg/mL, more than 128 µg/mL and more than 128 µg/mL.
The matching figures for `C=C[C@]1(C)SC(=O)C=C1O`: 70.1 µg/mL (≈ 449 µM), more than 128 µg/mL, more than 128 µg/mL, more than 128 µg/mL and more than 128 µg/mL.
`CCCC/C=C/[C@]1(C)SC(=O)C(C)=C1O` registered a half-inhibitory concentration (IC50) in assay [1] of 19.9 µg/mL (≈ 87.9 µM). Also, the MIC with Bacteroides fragilis, against Moraxella catarrhalis, with Staphylococcus aureus and against Haemophilus influenzae was more than 128 µg/mL in each case.
`CCC/C=C/[C@]1(C)SC(=O)C=C1O`: in assay [1], the 50% inhibitory concentration (IC50) is 8.8 µg/mL (≈ 44.4 µM). Moreover, the MIC in the assay with Bacteroides fragilis, in the assay on Moraxella catarrhalis, against Staphylococcus aureus and in the assay with Haemophilus influenzae was more than 128 µg/mL throughout.
As to `CC/C=C/[C@]1(C)SC(=O)C(C)=C1O`, the IC50 in assay [1] was 47 µg/mL (≈ 237 µM). Further, the MIC with Bacteroides fragilis, in the assay on Moraxella catarrhalis, against Staphylococcus aureus and with Haemophilus influenzae was more than 128 µg/mL each time.
As for `CCCCCC/C=C/[C@@]1(C)SC(=O)C(C)=C1O`, the IC50 in assay [1] stood at 57 µg/mL (≈ 224 µM). The MIC in the assay with Bacteroides fragilis, in the assay on Moraxella catarrhalis, in the assay with Staphylococcus aureus and against Haemophilus influenzae was more than 128 µg/mL throughout.
Compound `CCC/C=C/[C@]1(C)SC(=O)C(C)=C1O` gave an IC50 in assay [1] of 20 µg/mL (≈ 94.2 µM). Moreover, the MIC against Bacteroides fragilis, with Moraxella catarrhalis, against Staphylococcus aureus and with Haemophilus influenzae was more than 128 µg/mL each time.
`C=C/C(C)=C/[C@]1(C)SC(=O)C=C1O` had an IC50 in assay [1] of 19 µg/mL (≈ 96.8 µM). Moreover, the MIC against Moraxella catarrhalis and with Staphylococcus aureus was more than 128 µg/mL each time.
The compound `CCCC/C=C/[C@@]1(C)SC(=O)C=C1O` registered an IC50 in assay [1] of 18.6 µg/mL (≈ 87.6 µM). Further, the MIC with Bacteroides fragilis, with Moraxella catarrhalis, against Staphylococcus aureus and against Haemophilus influenzae was more than 128 µg/mL throughout.
Compound `C=C[C@]1(C)SC(=O)C(C)=C1O` had an IC50 in assay [1] of more than 80 µg/mL. Besides, the MIC in the assay on Bacteroides fragilis, in the assay with Moraxella catarrhalis, against Staphylococcus aureus and with Haemophilus influenzae was more than 128 µg/mL in each case.
Compound `C/C=C/[C@]1(C)SC(=O)C=C1O` showed an IC50 in assay [1] of more than 80 µg/mL. In addition, the MIC with Bacteroides fragilis, with Moraxella catarrhalis, with Staphylococcus aureus and in the assay on Haemophilus influenzae was more than 128 µg/mL each time.
Regarding `C/C=C/[C@@]1(C)SC(=O)C(C)=C1O`, the IC50 in assay [1] was 72.3 µg/mL (≈ 392 µM). Also, the MIC in the assay with Bacteroides fragilis, against Moraxella catarrhalis, against Staphylococcus aureus and against Haemophilus influenzae was more than 128 µg/mL throughout.
`C=C/C(C)=C/[C@@]1(C)SC(=O)C=C1O` came in with an IC50 in assay [1] of more than 80 µg/mL. The MIC with Bacteroides fragilis is 128 µg/mL (≈ 652 µM); with Moraxella catarrhalis it was 16 µg/mL (≈ 81.5 µM); with Staphylococcus aureus, more than 128 µg/mL; with Haemophilus influenzae, 32 µg/mL (≈ 163 µM).
The matching figures for `CC/C=C/[C@@]1(C)SC(=O)C(C)=C1O`: 57.5 µg/mL (≈ 290 µM), more than 128 µg/mL, more than 128 µg/mL, more than 128 µg/mL and more than 128 µg/mL.
In turn, `CCCCCC/C=C/[C@@]1(C)SC(=O)C=C1O` showed an IC50 in assay [1] of 20.1 µg/mL (≈ 83.6 µM). Besides, the MIC in the assay on Bacteroides fragilis, against Moraxella catarrhalis, in the assay with Staphylococcus aureus and in the assay on Haemophilus influenzae was more than 128 µg/mL in each case.
For `C/C=C/[C@]1(C)SC(=O)C(C)=C1O`, the IC50 in assay [1] was 37.1 µg/mL (≈ 201 µM). In addition, the MIC against Bacteroides fragilis, in the assay on Moraxella catarrhalis, in the assay with Staphylococcus aureus and against Haemophilus influenzae was more than 128 µg/mL in each case.
In assay [1], `CCCC/C=C/[C@@]1(C)SC(=O)C(C)=C1O` came in with an IC50 of 33.7 µg/mL (≈ 149 µM). Moreover, the MIC against Bacteroides fragilis, against Moraxella catarrhalis, in the assay on Staphylococcus aureus and against Haemophilus influenzae was more than 128 µg/mL throughout.
Compound `CCC/C=C/[C@@]1(C)SC(=O)C(C)=C1O` registered an IC50 in assay [1] of 41.5 µg/mL (≈ 195 µM). The MIC with Bacteroides fragilis, against Moraxella catarrhalis, in the assay with Staphylococcus aureus and against Haemophilus influenzae was more than 128 µg/mL in each case.
`CCC/C=C/[C@@]1(C)SC(=O)C=C1O` displayed an IC50 in assay [1] of 41.6 µg/mL (≈ 210 µM). Moreover, the MIC against Bacteroides fragilis, against Moraxella catarrhalis, against Staphylococcus aureus and with Haemophilus influenzae was more than 128 µg/mL in each case.
